Experimental data published in PubChem BioAssay AID1963423 (Molecular Pharmacology Branch, DTP, NCI, 2024).

Test system: 439559-082-T-J2-PDC complex spheroid growth
Test: Anticancer human tumor 439559-082-T-J2-PDC patient-derived colon adenocarcinoma cell line growth inhibition [Asc]
Details: for IC50: curve of first compound; for viability, T/C: stronger effect = lower value; active = viability on the fitted dose curve at most 10% of control; inactive = the rest
Outline: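 Stromal components (HUVEC and hMSC) are co-assembled with the cancer cells into multicellular spheroids. Drugs are then added singly or paired, at concentrations falling by half-log increments from a clinically achievable maximum, capped at 10 microM without known Cmax.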

[1] = second compound 0.03 µM, first compound 0.00316 µM
[2] = second compound 0.03 µM, first compound 0.01 µM
[3] = second compound 0.03 µM, first compound 0.0316 µM
[4] = second compound 0.03 µM, first compound 0.1 µM
[5] = second compound 0.0949 µM, first compound 0.00316 µM
[6] = second compound 0.0949 µM, first compound 0.01 µM
[7] = second compound 0.0949 µM, first compound 0.0316 µM
[8] = second compound 0.0949 µM, first compound 0.1 µM
[9] = second compound 0.3 µM, first compound 0.00316 µM
[10] = second compound 0.3 µM, first compound 0.01 µM
[11] = second compound 0.3 µM, first compound 0.0316 µM
[12] = second compound 0.3 µM, first compound 0.1 µM
[13] = second compound 0.949 µM, first compound 0.00316 µM
[14] = second compound 0.949 µM, first compound 0.01 µM
[15] = second compound 0.949 µM, first compound 0.0316 µM
[16] = second compound 0.949 µM, first compound 0.1 µM
[17] = second compound 3 µM, first compound 0.00316 µM
[18] = second compound 3 µM, first compound 0.01 µM
[19] = second compound 3 µM, first compound 0.0316 µM
[20] = second compound 3 µM, first compound 0.1 µM
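Note: spheroids exposed to agents for 7 days starting day 3 after seeding.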
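Throughout, for viability, T/C: percent of DMSO vehicle control viability with 100% = vehicle.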

COc1c(OCCCN2CCOCC2)ccc2c3n(c(=NC(=O)c4cnc(N)nc4)nc12)CCN3 + CCN1C(C(=O)NC23CCC(C(=O)O)(CC2)CC3)C(c2cccc(Cl)c2F)C2(C(=O)Nc3cc(Cl)ccc32)C12CCCCC2
> 1 µM: IC50 (second compound 0.03 µM) | IC50 (second compound 0.0949 µM) | IC50 (second compound 0.3 µM) | IC50 (second compound 0.949 µM) | IC50 (second compound 3 µM)
inactive: viability, T/C [1] 98.5% | viability, T/C [2] 98.3% | viability, T/C [3] 94.1% | viability, T/C [4] 71.7% | viability, T/C (second compound 0.03 µM, first compound 0.316 µM) 63.3% | viability, T/C (second compound 0.03 µM, first compound 1 µM) 57.4% | viability, T/C [5] 96.4% | viability, T/C [6] 96.9% | viability, T/C [7] 90.7% | viability, T/C [8] 69% | viability, T/C (second compound 0.0949 µM, first compound 0.316 µM) 67.3% | viability, T/C (second compound 0.0949 µM, first compound 1 µM) 60.8% | viability, T/C [9] 88.9% | viability, T/C [10] 99.9% | viability, T/C [11] 89.4% | viability, T/C [12] 68.7% | viability, T/C (second compound 0.3 µM, first compound 0.316 µM) 59.7% | viability, T/C (second compound 0.3 µM, first compound 1 µM) 60.9% | viability, T/C [13] 95.8% | viability, T/C [14] 98.3% | viability, T/C [15] 96.6% | viability, T/C [16] 69.5% | viability, T/C (second compound 0.949 µM, first compound 0.316 µM) 60.6% | viability, T/C (second compound 0.949 µM, first compound 1 µM) 63.1% | viability, T/C [17] 80.1% | viability, T/C [18] 83.8% | viability, T/C [19] 93.2% | viability, T/C [20] 63% | viability, T/C (second compound 3 µM, first compound 0.316 µM) 59% | viability, T/C (second compound 3 µM, first compound 1 µM) 55.2%

NC(=O)C(=Cn1cnc(-c2cc(C(F)(F)F)cc(C(F)(F)F)c2)n1)c1cncnc1 + CCN1C(C(=O)NC23CCC(C(=O)O)(CC2)CC3)C(c2cccc(Cl)c2F)C2(C(=O)Nc3cc(Cl)ccc32)C12CCCCC2
inactive: viability, T/C (second compound 0.03 µM, first compound 0.000949 µM) 96.7% | viability, T/C (second compound 0.03 µM, first compound 0.003 µM) 103% | viability, T/C (second compound 0.03 µM, first compound 0.00949 µM) 103% | viability, T/C (second compound 0.03 µM, first compound 0.03 µM) 90.9% | viability, T/C (second compound 0.03 µM, first compound 0.0949 µM) 95.2% | viability, T/C (second compound 0.03 µM, first compound 0.3 µM) 81.9% | viability, T/C (second compound 0.0949 µM, first compound 0.000949 µM) 98.5% | viability, T/C (second compound 0.0949 µM, first compound 0.003 µM) 113% | viability, T/C (second compound 0.0949 µM, first compound 0.00949 µM) 107% | viability, T/C (second compound 0.0949 µM, first compound 0.03 µM) 83.2% | viability, T/C (second compound 0.0949 µM, first compound 0.0949 µM) 89.4% | viability, T/C (second compound 0.0949 µM, first compound 0.3 µM) 83.3% | viability, T/C (second compound 0.3 µM, first compound 0.000949 µM) 106% | viability, T/C (second compound 0.3 µM, first compound 0.003 µM) 102% | viability, T/C (second compound 0.3 µM, first compound 0.00949 µM) 105% | viability, T/C (second compound 0.3 µM, first compound 0.03 µM) 88.2% | viability, T/C (second compound 0.3 µM, first compound 0.0949 µM) 93.2% | viability, T/C (second compound 0.3 µM, first compound 0.3 µM) 80.8% | viability, T/C (second compound 0.949 µM, first compound 0.000949 µM) 105% | viability, T/C (second compound 0.949 µM, first compound 0.003 µM) 104% | viability, T/C (second compound 0.949 µM, first compound 0.00949 µM) 110% | viability, T/C (second compound 0.949 µM, first compound 0.03 µM) 90.3% | viability, T/C (second compound 0.949 µM, first compound 0.0949 µM) 88.6% | viability, T/C (second compound 0.949 µM, first compound 0.3 µM) 86.8% | viability, T/C (second compound 3 µM, first compound 0.000949 µM) 87.3% | viability, T/C (second compound 3 µM, first compound 0.003 µM) 93.2% | viability, T/C (second compound 3 µM, first compound 0.00949 µM) 96.6% | viability, T/C (second compound 3 µM, first compound 0.03 µM) 87.5% | viability, T/C (second compound 3 µM, first compound 0.0949 µM) 75% | viability, T/C (second compound 3 µM, first compound 0.3 µM) 67.7%
> 0.3 µM: IC50 (second compound 0.03 µM) | IC50 (second compound 0.0949 µM) | IC50 (second compound 0.3 µM) | IC50 (second compound 0.949 µM) | IC50 (second compound 3 µM)

NC1CCC(NC2CC2c2ccccc2)CC1 (stereo not given) + CCN1C(C(=O)NC23CCC(C(=O)O)(CC2)CC3)C(c2cccc(Cl)c2F)C2(C(=O)Nc3cc(Cl)ccc32)C12CCCCC2
inactive: viability, T/C (second compound 0.03 µM, first compound 0.000316 µM) 95.4% | viability, T/C (second compound 0.03 µM, first compound 0.001 µM) 107% | viability, T/C [1] 119% | viability, T/C [2] 95.5% | viability, T/C [3] 102% | viability, T/C [4] 99.7% | viability, T/C (second compound 0.0949 µM, first compound 0.000316 µM) 105% | viability, T/C (second compound 0.0949 µM, first compound 0.001 µM) 111% | viability, T/C [5] 123% | viability, T/C [6] 100% | viability, T/C [7] 98.8% | viability, T/C [8] 107% | viability, T/C (second compound 0.3 µM, first compound 0.000316 µM) 97.6% | viability, T/C (second compound 0.3 µM, first compound 0.001 µM) 111% | viability, T/C [9] 110% | viability, T/C [10] 98.4% | viability, T/C [11] 110% | viability, T/C [12] 111% | viability, T/C (second compound 0.949 µM, first compound 0.000316 µM) 111% | viability, T/C (second compound 0.949 µM, first compound 0.001 µM) 124% | viability, T/C [13] 121% | viability, T/C [14] 100% | viability, T/C [15] 107% | viability, T/C [16] 114% | viability, T/C (second compound 3 µM, first compound 0.000316 µM) 96.8% | viability, T/C (second compound 3 µM, first compound 0.001 µM) 98.5% | viability, T/C [17] 103% | viability, T/C [18] 98.6% | viability, T/C [19] 94.1% | viability, T/C [20] 107%
> 0.1 µM: IC50 (second compound 0.03 µM) | IC50 (second compound 0.0949 µM) | IC50 (second compound 0.3 µM) | IC50 (second compound 0.949 µM) | IC50 (second compound 3 µM)
